Results: US5362747A, “2-nitroaryl and 2-cyanoaryl compounds as regulators of nitric oxide synthase” (Abbott Laboratories, priority 1993, dated 1994)

What was measured:
Type II (macrophage) NOS = molecular target: T1, Type II (macrophage) NOS (Mus musculus, UniProt P29477); assay: [3H]-arginine to [3H]-citrulline conversion, Type II (macrophage) NOS; type: biochemical, murine; settings: cytosolic NOS from LPS-induced RAW 264.7 cells, 25° C.; for inhibition at 100 µM: read-out: Type II % inhib. @ 100 μM
T1 construct: cytosolic preparations of NO synthase (type II isoform) were prepared from RAW 264.7 cells; endogenous in cells; host or cells: RAW 264.7 cells, induced 16 hours with lipopolysaccharide; cytosolic preparation
T1 sequence (P29477 whole entry, canonical isoform): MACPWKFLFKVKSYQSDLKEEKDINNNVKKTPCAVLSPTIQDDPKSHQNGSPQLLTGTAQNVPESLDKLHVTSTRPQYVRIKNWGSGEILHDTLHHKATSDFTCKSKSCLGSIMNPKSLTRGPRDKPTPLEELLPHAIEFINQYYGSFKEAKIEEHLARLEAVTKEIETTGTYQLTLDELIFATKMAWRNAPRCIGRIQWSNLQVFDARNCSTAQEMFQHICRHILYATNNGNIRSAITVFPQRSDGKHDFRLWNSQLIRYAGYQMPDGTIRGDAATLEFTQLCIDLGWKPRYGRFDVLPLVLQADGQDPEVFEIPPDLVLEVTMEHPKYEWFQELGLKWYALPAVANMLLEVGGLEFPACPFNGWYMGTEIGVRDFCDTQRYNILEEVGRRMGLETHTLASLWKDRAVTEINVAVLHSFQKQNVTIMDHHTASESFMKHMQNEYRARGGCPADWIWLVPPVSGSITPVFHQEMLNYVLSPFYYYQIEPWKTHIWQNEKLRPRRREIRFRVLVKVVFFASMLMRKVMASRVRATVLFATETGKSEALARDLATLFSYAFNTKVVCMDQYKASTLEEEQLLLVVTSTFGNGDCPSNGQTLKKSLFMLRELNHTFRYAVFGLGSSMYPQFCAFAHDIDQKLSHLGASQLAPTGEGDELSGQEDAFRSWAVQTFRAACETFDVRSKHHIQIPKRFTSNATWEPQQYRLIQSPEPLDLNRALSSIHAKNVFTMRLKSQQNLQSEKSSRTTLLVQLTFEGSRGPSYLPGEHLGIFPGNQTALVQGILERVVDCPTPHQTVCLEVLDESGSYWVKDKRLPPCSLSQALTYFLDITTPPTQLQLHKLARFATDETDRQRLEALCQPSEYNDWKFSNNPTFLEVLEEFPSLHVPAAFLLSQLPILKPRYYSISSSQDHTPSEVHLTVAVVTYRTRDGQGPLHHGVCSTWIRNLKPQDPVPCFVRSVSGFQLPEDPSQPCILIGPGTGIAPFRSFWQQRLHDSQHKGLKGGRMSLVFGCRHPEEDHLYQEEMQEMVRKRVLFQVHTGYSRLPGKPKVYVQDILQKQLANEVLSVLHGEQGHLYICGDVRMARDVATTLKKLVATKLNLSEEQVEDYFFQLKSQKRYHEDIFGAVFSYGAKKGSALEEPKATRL
Text: The enzyme NO synthase produces EDRF/NO and citrulline from L-arginine (Bredt and Snyder, Proc. Nat'l Acad Sci USA, 1989, 87: 682-5). The enzymatic generation of EDRF/NO is monitored by measuring the conversion of [^3 H]-L-arginine to [^3 H]-L-citrulline. An inhibitor of this specific enzymatic reaction lowers the conversion rate and, thus, the amount of [^3 H]-L-citrulline produced. Likewise, a compound acting as a substrate would compete with L-arginine and thereby lower the conversion rate.
The conversion of L-arginine to L-citrulline was assayed as reported previously (Bredt and Snyder, Proc. Nat'l Acad Sci USA, 1989, 87: 682-5) with minor modifications. Briefly, samples of partially purified NO synthase, […] of partially purified NO synthase or, alternately, […] of a cytosolic preparation of NO synthase. The type 1 isoform of NO synthase was isolated from rat brain cerebellum cells partially purified on a phosphocellulose column. The cytosolic preparations of NO synthase (type II isoform) were prepared from RAW 264.7 cells (a murine monocyte-macrophage cell line), induced for 16 hours with […] medium of lipopolysaccharide (LPS). Another enzyme isoform (type III)is known to be present in bovine endothelial cells (BAE cells), and can be utilized if an additional assay is desired. The samples of enzyme were incubated for 20 minutes (3 minutes in the cases of purified enzyme preparations) at 25° C. in the presence of […] L-[2,3-^3 H]arginine (55 Ci /mmol) (containing 34 nM (0.2 mCi)), 1 mM NADPH, 100 nM calmodulin, 2 mM CaCl2, and with varying concentrations of inhibitors, in a final volume of […]. The reaction was stopped by adding 1 mL of stop buffer (2 mM EGTA, 2 mM EDTA, 20 mM HEPES, pH 5.5). The total volume was then applied to a 1 mL Dowex AG 50WX-8 column (Na^+ form, BioRad) that had been pre-equilibrated with the stop buffer. L-[2,3-^3 H]Citrulline was eluted (2×) with 0.5 mL of stop buffer and radioactivity was determined by liquid scintillation counting. The L-[2,3-^3 H]arginine (Dupont, NEN) was purified prior to use on Dowex AG-1-X8 (CH3 CO2 -- form, Bio-Rad), eluted with distilled water, acidified, concentrated on a Speed-Vac (Savant) and stored at -20° C.

Type I (rat brain) NOS = molecular target: T2, Type I (rat brain) NOS (Rattus norvegicus, UniProt P29476); assay: [3H]-arginine to [3H]-citrulline conversion, Type I (rat brain) NOS; type: biochemical; settings: rat brain cerebellum NOS, 25° C.; for inhibition at 100 µM: read-out: Type I % inhib. @ 100 μM
T2 construct: isolated from rat brain cerebellum cells partially purified on a phosphocellulose column; from tissue; host or cells: rat brain cerebellum, partially purified on phosphocellulose
T2 sequence (P29476 whole entry): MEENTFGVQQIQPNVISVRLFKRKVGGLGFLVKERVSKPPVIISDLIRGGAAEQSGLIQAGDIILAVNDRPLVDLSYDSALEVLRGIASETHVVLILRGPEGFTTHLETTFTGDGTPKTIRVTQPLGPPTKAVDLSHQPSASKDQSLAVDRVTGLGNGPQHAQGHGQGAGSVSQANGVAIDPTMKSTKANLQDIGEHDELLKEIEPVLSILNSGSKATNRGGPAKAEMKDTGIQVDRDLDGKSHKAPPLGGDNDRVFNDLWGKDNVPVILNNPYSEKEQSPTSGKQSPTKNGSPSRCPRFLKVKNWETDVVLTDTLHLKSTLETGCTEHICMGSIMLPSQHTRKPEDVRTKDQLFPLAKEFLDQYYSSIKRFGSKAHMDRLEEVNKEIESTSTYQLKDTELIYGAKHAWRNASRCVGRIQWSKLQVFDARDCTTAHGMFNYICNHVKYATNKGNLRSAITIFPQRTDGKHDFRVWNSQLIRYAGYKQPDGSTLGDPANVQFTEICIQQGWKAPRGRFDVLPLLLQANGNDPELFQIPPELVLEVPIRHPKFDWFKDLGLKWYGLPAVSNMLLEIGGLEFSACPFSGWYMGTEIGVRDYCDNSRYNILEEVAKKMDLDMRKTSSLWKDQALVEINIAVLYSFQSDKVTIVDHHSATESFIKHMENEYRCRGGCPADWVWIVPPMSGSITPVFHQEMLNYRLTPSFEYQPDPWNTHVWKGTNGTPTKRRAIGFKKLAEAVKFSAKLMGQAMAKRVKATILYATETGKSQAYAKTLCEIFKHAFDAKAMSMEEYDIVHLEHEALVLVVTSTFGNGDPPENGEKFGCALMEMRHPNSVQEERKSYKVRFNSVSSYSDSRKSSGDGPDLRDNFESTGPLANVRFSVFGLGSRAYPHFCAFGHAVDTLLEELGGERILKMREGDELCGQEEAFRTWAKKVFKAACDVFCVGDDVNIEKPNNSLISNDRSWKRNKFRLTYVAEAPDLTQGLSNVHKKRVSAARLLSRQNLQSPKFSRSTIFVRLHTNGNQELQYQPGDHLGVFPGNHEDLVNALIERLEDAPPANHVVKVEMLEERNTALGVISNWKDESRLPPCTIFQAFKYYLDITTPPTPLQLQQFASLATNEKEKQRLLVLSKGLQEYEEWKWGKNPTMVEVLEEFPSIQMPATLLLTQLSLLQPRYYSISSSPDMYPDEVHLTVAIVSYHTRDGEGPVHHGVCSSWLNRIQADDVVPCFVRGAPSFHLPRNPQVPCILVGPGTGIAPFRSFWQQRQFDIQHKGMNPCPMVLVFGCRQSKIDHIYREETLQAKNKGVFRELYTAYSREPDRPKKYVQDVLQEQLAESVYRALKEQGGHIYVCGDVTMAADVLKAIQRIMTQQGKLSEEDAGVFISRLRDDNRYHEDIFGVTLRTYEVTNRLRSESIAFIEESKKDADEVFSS
Procedure: Briefly, samples of partially purified NO synthase, 50-100 mg of partially purified NO synthase or, alternately, 20 mL of a cytosolic preparation of NO synthase. The type 1 isoform of NO synthase was isolated from rat brain cerebellum cells partially purified on a phosphocellulose column. […] The reaction was stopped by adding 1 mL of stop buffer (2 mM EGTA, 2 mM EDTA, 20 mM HEPES, pH 5.5). The total volume was then applied to a 1 mL Dowex AG 50WX-8 column (Na^+ form, BioRad) that had been pre-equilibrated with the stop buffer. L-[2,3-^3 H]Citrulline was eluted (2×) with 0.5 mL of stop buffer and radioactivity was determined by liquid scintillation counting.

EDRF (NO) production = settings: cited from earlier work
NO synthase enzyme = settings: cited from earlier work
bovine coronary artery = settings: cited from earlier work

Row | Compound | inhibition at 100 µM (Type II (macrophage) NOS) [%] | IC50 (Type II (macrophage) NOS) [µM] | inhibition at 100 µM (Type I (rat brain) NOS) [%] | IC50 (Type I (rat brain) NOS) [µM] | EDRF (NO) production (EDRF (NO) production) | substrate for the NO synthase enzyme (NO synthase enzyme) | cGMP accumulation (bovine coronary artery; accompanying relaxation of bovine coronary artery) | relaxation of bovine coronary artery (bovine coronary artery)
1 | Cc1ccc([N+](=O)[O-])c(NCCC[C@H](N)C(=O)O)c1 [Example 2, (2S)-2-amino-5-(5-methyl-2-nitrophenylamino)pentanoic acid] | 88 | 10 | 88 | 4 | – | – | – | –
2 | Cc1ccc([N+](=O)[O-])c(NC/C=C/[C@H](N)CO)c1 [Example 3, (2S)-2-amino-5-(5-methyl-2-nitrophenylamino)-pent-3E-en-1-ol] | – | 10 | 99 | 3 | – | – | – | –
3 | Cc1ccc([N+](=O)[O-])c(NCCCC(N)CO)c1 (centres unmarked) [Example 4, 2-amino-5-(5-methyl-2-nitrophenylamino)-1-pentanol] | 99 | 2.5 | 94 | 3 | – | – | – | –
4 | COc1ccc([N+](=O)[O-])c(NCCC[C@H](N)C(=O)O)c1 [Example 5, (2S)-2-amino-5-(5-methoxy-2-nitrophenylamino)pentanoic acid] | 46 | 100 | 68 | 20 | – | – | – | –
5 | N[C@@H](CCCNc1c(Cl)cccc1[N+](=O)[O-])C(=O)O [Example 6, (2S)-2-amino-5-(2-chloro-6-nitrophenylamino)pentanoic acid] | 11 | > 100 | 55 | 100 | – | – | – | –
6 | Cc1ccc([N+](=O)[O-])c(NCCCC[C@H](N)C(=O)O)c1 [Example 7, (2S)-2-amino-6-(2-nitro-5-methylphenylamino)hexanoic acid] | – | > 100 | 91 | 40 | – | – | – | –
7 | Cc1ccc([N+](=O)[O-])c(SCCC[C@H](N)C(=O)O)c1 [Example 8, 2(S)-amino-5-(5-methyl-2-nitrophenylthioxy)pentanoic acid] | 95 | 9 | 97 | 1 | – | – | – | –
8 | Cc1ccc([N+](=O)[O-])c(NCCC[C@@H](N)C(=O)O)c1 [Example 10, (2R)-2-amino-5-(5-methyl-2-nitrophenylamino)pentanoic acid] | 45 | 100 | 58 | 70 | – | – | – | –
9 | N#Cc1ccccc1NCCC[C@H](N)C(=O)O [Example 11, (2S)-2-amino-5-(2-cyanophenylamino)pentanoic acid] | 50 | 100 | 6 | > 100 | – | – | – | –
10 | N=C(NCCC[C@H](N)C(=O)O)N[N+](=O)[O-] [NNLA, NNitro-L-arginine, reference compound] | 94 | 7 | 95 | – | – | – | – | –
11 | CNC(=N)NCCCC(N)C(=O)O (centres unmarked) [N^G -methylarginine] | – | – | – | – | inhibited | – | – | –
12 | N-hydroxyarginine | – | – | – | – | – | substrate | – | –
13 | nitric oxide [nitric oxide (NO)] | – | – | – | – | – | – | cGMP accumulation | potent and transient relaxation
